Read-outs that look alike come from different tables or passages of the source.
Key:
[1] = Pharmacokinetic analysis in mice; type: in vivo, mouse; conditions: for half-life: read-out: Half-life (t1/2) (converted); for Tmax: read-out: Observed Tmax
Experimental: All PK studies were conducted at Charles River Laboratories (CRL), MA, USA. CRL is fully accredited by the Association for Assessment and Accreditation of Laboratory Animal Care International (AAALAC), and is registered with the United States Department of Agriculture (USDA). All procedures involving animals were conducted humanely and were performed by trained and experienced personnel. The individual study protocols were reviewed and approved by the IACUC of CRL. A total of 48 male C57BL/6NCRL mice were used. Animals were acclimated to the study room environment for 5 days prior to dose administration. Mice were individually housed in micro isolator cages, and were kept on a 12/12 hour light/dark cycle except when interrupted for study procedures. Mice were fed LabDiet Certified Rodent Diet 5002 food ad libitum, except during fasting prior to dose administration, and had access to water ad libitum. […] For the iv doses, the compound was formulated at 1 mg/mL as a dose solution in 2% […] (NMP), 14% Propylene Glycol (PG), 14% Solutol HS–15, 70% 50mM Citrate, pH 4.5 , by volume. For the po dose, the compound was formulated at 1 mg/mL as a solution in 30% PG, 20% Solutol HS–15, 50% 50mM Citrate, pH 4.5, by volume. Aliquots (25 μL) of samples, plasma, and tissue blanks (containing internal standard only), plasma and tissue double blanks (without internal standard), control blanks (solvent only), diluted dose (dilute in plasma from the study species prior to extraction) and matrix calibration standards were dispensed into 96-well plates. Extracting solution with internal standard (100 μL) was added to all samples except matrix double blanks and solvent blanks. Extracting solution without internal standard (100 μL) was added to matrix double blanks. Samples were vortexed and centrifuged for 5 minutes, and the supernatants were transferred to a new plate. An aliquot (50 μL) of Milli-Q water was added to the samples, which were covered and vortexed for 5 minutes. […] Reserpine was used as an internal standard in the LC-MS/MS assay. Mice were divided into four groups of 3 animals each. Two blood samples were collected from each mouse following dosing; the second collection was a terminal sample and brains were also collected at that time as follows: Group 1 at 0.083 and 0.5 hr, Group 2 at 0.25 and 2 hr, Group 3 at 1 and 8 hr and Group 4 at 4 and 24 hr., and brain tissue time points at 0.5, 2, 8 and 24 hr. Non-compartmental pharmacokinetic analyses of the plasma concentration time course were performed using WinNonlin, version 5.2 (Pharsight Corp., Mountain View, California).

R6/2 mice = assay: Open Field Test; type: in vivo, mouse; set-up: key to Open Field Total Distance: direction of significant change vs Vehicle-treated R6/2 mice / Open Field Center Distance: direction of significant change vs Vehicle-treated R6/2 mice: ▲: significant enhancement compared to Vehicle-treated R6/2 mice (One-way ANOVA, Dunnett’s post-hoc); ▼: significant impairment compared to Vehicle-treated R6/2 mice (One-way ANOVA, Dunnett’s post-hoc)
Experimental: Motor function testing including open field and rear climbing tests were commenced at 4 weeks of age and continued at weeks 6, 8 and 12, for grip strength test at age weeks 4 and 12 and for rotarod at age weeks 4, 6 and 8. Compound treatment was started at 4 weeks of age after the baseline behavioral tests.
Open field test was performed at age weeks 4, 6, 8 and 12. The mice were tested on Mondays at approximately 10-30 lux of red light. The mice were brought to the experimental room for at least 1 h acclimation to the experimental room conditions prior to testing. Activity chambers (Med Associates Inc., St Albans, VT; 27 x 27 x 20.3 cm) are equipped with IR beams. Mice were placed in the center of the chamber and their behavior was recorded for 30 min in 5-minute bins. Quantitative analysis was performed on the following five dependent measures: total locomotion, locomotion in the center of the open field, rearing rate in the center, total rearing frequency and velocity.
All values are presented as mean ± Standard Error of Mean (SEM), and differences are considered to be statistically significant at the p < 0.05 level. Statistical analysis was performed using StatsDirect statistical software. Differences between group means were analyzed by 1-way-ANOVA followed by Dunnett’s test (comparison to the control (=vehicle treated TG mice) group). The acquisition of the Cued two-choice swim test was analyzed using Fisher’s exact test.

[2] = set-up: method as in PMID 8961086; conditions: rats; ref [27]; read-out: plasma Cmax exposure; cited from earlier work
[3] = male, C57BL/6NCRL, mouse, 5 mg/kg, Brain, IV 5.0 (mg eq./kg)
[4] = male, C57BL/6NCRL, mouse, 5 mg/kg, Plasma, IV 5.0 (mg eq./kg)
[5] = Age Week 4, 10 mg/kg p.o., BID, ANOVA
[6] = Age Week 4, 30 mg/kg p.o., BID, ANOVA
[7] = Age Week 6, 10 mg/kg p.o., BID, ANOVA
[8] = Age Week 6, 30 mg/kg p.o., BID, ANOVA
[9] = Age Week 8, 10 mg/kg p.o., BID, ANOVA
[10] = Age Week 8, 30 mg/kg p.o., BID, ANOVA
[11] = Age Week 12, 10 mg/kg p.o., BID
[12] = Age Week 12, 10 mg/kg p.o., BID, ANOVA
[13] = Age Week 12, 30 mg/kg p.o., BID
[14] = Age Week 12, 30 mg/kg p.o., BID, ANOVA

CN1C(=O)c2nc(Cc3ccc(C(F)(F)F)cc3)[nH]c2N2C1=N[C@H]1CCC[C@H]12 [SCH-51866, (+)-cis-5,6a,7,8,9,9a-hexahydro-2-[4-[trifluro-methyl]phenylmethyl]-5-methyl-cylopent[4,5]imidazo [2,1-b]purin-4(3H)one]
brain concentration at Tmax exceeds the biochemical IC50 for PDE1 ([1]; after oral administration): ~ 7 fold
time through which concentrations in brain were measurable for all animals ([1]; following dosing): 8 h
AUC(0-inf) [1, 3]: 8.23 µM·h
AUC(0-t) [1, 3]: 8.18 µM·h
half-life [1, 3]: 1.08 h
Cmax ([1]; male, C57BL/6NCRL, mouse, 5 mg/kg, Brain, IV 5.0 (mg eq./kg), read-out: Observed Cmax): 3560 nM
AUC(0-inf) [1, 4]: 7.35 µM·h
AUC(0-t) [1, 4]: 7.31 µM·h
half-life [1, 4]: 3.87 h
MRT ([1]; male, C57BL/6NCRL, mouse, 5 mg/kg, Plasma, IV 5.0 (mg eq./kg), read-out: Mean Residence Time (MRT)): 2.57 h
clearance ([1]; male, C57BL/6NCRL, mouse, 5 mg/kg, Plasma, IV 5.0 (mg eq./kg), read-out: Plasma Clearance (CLp) (converted)): 29.2 mL/min/kg
Vd ([1]; male, C57BL/6NCRL, mouse, 5 mg/kg, Plasma, IV 5.0 (mg eq./kg), read-out: Volume of Distribution at Steady State (Vdss)): 4.48 L/kg
AUC(0-t) ([1]; male, C57BL/6NCRL, mouse, 10 mg/kg, Brain, PO 10.0 (mg eq./kg)): 2.2 µM·h
Cmax ([1]; male, C57BL/6NCRL, mouse, 10 mg/kg, Brain, PO 10.0 (mg eq./kg), read-out: Observed Cmax): 475 nM
Tmax ([1]; male, C57BL/6NCRL, mouse, brain, iv, 5 mg/kg, Brain, IV 5.0 (mg eq./kg)): 0.5 h
Kp ([1]; male, C57BL/6NCRL, mouse, brain, oral, 10 mg eq./kg, mice, read-out: Brain-to-plasma concentration ratios): 0.1 to 0.4
Tmax ([1]; male, C57BL/6NCRL, mouse, brain, po, 10 mg/kg, Brain, PO 10.0 (mg eq./kg)): 2 h
Cmax ([1]; male, C57BL/6NCRL, mouse, plasma, 10 mg/kg po in mice, read-out: plasma Cmax exposure): 2400 nM
Open Field Average Velocity: p vs Vehicle-treated R6/2 mice (R6/2 mice; [5]): ANOVA: p=0.461
Open Field Center Distance: p vs Vehicle-treated R6/2 mice (R6/2 mice; [5]): ANOVA: p=0.701
Open Field Rearing Rate in Center: p vs Vehicle-treated R6/2 mice (R6/2 mice; [5]): ANOVA: p=0.341
Open Field Total Distance: p vs Vehicle-treated R6/2 mice (R6/2 mice; [5]): ANOVA: p=0.792
Open Field Total Rearing Frequency: p vs Vehicle-treated R6/2 mice (R6/2 mice; [5]): ANOVA: p=0.542
Open Field Average Velocity: p vs Vehicle-treated R6/2 mice (R6/2 mice; [6]): ANOVA: p=0.461
Open Field Center Distance: p vs Vehicle-treated R6/2 mice (R6/2 mice; [6]): ANOVA: p=0.701
Open Field Rearing Rate in Center: p vs Vehicle-treated R6/2 mice (R6/2 mice; [6]): ANOVA: p=0.341
Open Field Total Distance: p vs Vehicle-treated R6/2 mice (R6/2 mice; [6]): ANOVA: p=0.792
Open Field Total Rearing Frequency: p vs Vehicle-treated R6/2 mice (R6/2 mice; [6]): ANOVA: p=0.542
Open Field Average Velocity: p vs Vehicle-treated R6/2 mice (R6/2 mice; [7]): ANOVA: p=0.686
Open Field Center Distance: p vs Vehicle-treated R6/2 mice (R6/2 mice; [7]): ANOVA: p=0.305
Open Field Rearing Rate in Center: p vs Vehicle-treated R6/2 mice (R6/2 mice; [7]): ANOVA: p=0.594
Open Field Total Distance: p vs Vehicle-treated R6/2 mice (R6/2 mice; [7]): ANOVA: p=0.101
Open Field Total Rearing Frequency: p vs Vehicle-treated R6/2 mice (R6/2 mice; [7]): ANOVA: p=0.639
Open Field Average Velocity: p vs Vehicle-treated R6/2 mice (R6/2 mice; [8]): ANOVA: p=0.686
Open Field Center Distance: p vs Vehicle-treated R6/2 mice (R6/2 mice; [8]): ANOVA: p=0.305
Open Field Rearing Rate in Center: p vs Vehicle-treated R6/2 mice (R6/2 mice; [8]): ANOVA: p=0.594
Open Field Total Distance: p vs Vehicle-treated R6/2 mice (R6/2 mice; [8]): ANOVA: p=0.101
Open Field Total Rearing Frequency: p vs Vehicle-treated R6/2 mice (R6/2 mice; [8]): ANOVA: p=0.639
Open Field Average Velocity: p vs Vehicle-treated R6/2 mice (R6/2 mice; [9]): ANOVA: p=0.138
Open Field Center Distance: p vs Vehicle-treated R6/2 mice (R6/2 mice; [9]): ANOVA: p=0.693
Open Field Rearing Rate in Center: p vs Vehicle-treated R6/2 mice (R6/2 mice; [9]): ANOVA: p=0.519
Open Field Total Distance: p vs Vehicle-treated R6/2 mice (R6/2 mice; [9]): ANOVA: p=0.333
Open Field Total Rearing Frequency: p vs Vehicle-treated R6/2 mice (R6/2 mice; [9]): ANOVA: p=0.395
Open Field Average Velocity: p vs Vehicle-treated R6/2 mice (R6/2 mice; [10]): ANOVA: p=0.138
Open Field Center Distance: p vs Vehicle-treated R6/2 mice (R6/2 mice; [10]): ANOVA: p=0.693
Open Field Rearing Rate in Center: p vs Vehicle-treated R6/2 mice (R6/2 mice; [10]): ANOVA: p=0.519
Open Field Total Distance: p vs Vehicle-treated R6/2 mice (R6/2 mice; [10]): ANOVA: p=0.333
Open Field Total Rearing Frequency: p vs Vehicle-treated R6/2 mice (R6/2 mice; [10]): ANOVA: p=0.395
Open Field Center Distance: p vs Vehicle-treated R6/2 mice (R6/2 mice; [11]): p=0.112
Open Field Total Distance: p vs Vehicle-treated R6/2 mice (R6/2 mice; [11]): p=0.454
Open Field Average Velocity: p vs Vehicle-treated R6/2 mice (R6/2 mice; [12]): ANOVA: p=0.197
Open Field Rearing Rate in Center: p vs Vehicle-treated R6/2 mice (R6/2 mice; [12]): ANOVA: p=0.423
Open Field Total Rearing Frequency: p vs Vehicle-treated R6/2 mice (R6/2 mice; [12]): ANOVA: p=0.703
Open Field Center Distance: direction of significant change vs Vehicle-treated R6/2 mice (R6/2 mice; [13]): ▼
Open Field Center Distance: p vs Vehicle-treated R6/2 mice (R6/2 mice; [13]): 0.012
Open Field Total Distance: direction of significant change vs Vehicle-treated R6/2 mice (R6/2 mice; [13]): ▼
Open Field Total Distance: p vs Vehicle-treated R6/2 mice (R6/2 mice; [13]): 0.016
Open Field Average Velocity: p vs Vehicle-treated R6/2 mice (R6/2 mice; [14]): ANOVA: p=0.197
Open Field Rearing Rate in Center: p vs Vehicle-treated R6/2 mice (R6/2 mice; [14]): ANOVA: p=0.423
Open Field Total Rearing Frequency: p vs Vehicle-treated R6/2 mice (R6/2 mice; [14]): ANOVA: p=0.703
Open field total distance traveled, distance in center, total rear frequency, average velocity, effect in words (R6/2 mice; chronic administration in R6/2 mice): no improvement
performance in open field evaluation, effect in words (R6/2 mice; highest dose group, 12 weeks of age): modest but significant worsening of performance
Cmax [2]: 2370 to 3800 nM

From PMC3923778 (PLoS Currents, 2014)
